Measurements from patent US20130090381A1, “PYRETHRINOID-TYPE ESTERS AS PESTICIDES” (SUMITOMO CHEMICAL COMPANY, LIMITED, priority 2010, published 2013).

Tested on: German cockroaches
Assay: Knockdown test on German cockroaches by spraying an oil solution
Type: in vivo, German cockroach (Blattella germanica)
Settings: 0.1% (w/v) oil solution, 1.5 ml sprayed; after 15 minutes; ten German cockroaches (5 of each male and female)
Experimental: The present invention compound (1) (0.1 parts) produced in the aforementioned Production Example was dissolved in 10 parts of isopropyl alcohol and the resulting solution was mixed with 89.9 parts of deodorized kerosine to prepare a 0.1% (w/v) oil solution.
Ten German cockroaches (5 of each male and female) were released in a test container (measuring 8.75 cm in diameter and 7.5 cm in height, bottom area covered with a 16 mesh wire netting) coated with butter at an inner wall, and the container was disposed on the bottom of a test chamber (bottom surface measuring 46 cm and 46 cm, 70 cm in height).
From 60 cm in height above the container, 1.5 ml of the oil solution of the present invention compound (1) was sprayed using a spray gun (spray pressure: 0.4 kg/cm^2). Thirty seconds after spraying, the container was removed from the test chamber. After a given time, the number of knockdowned cockroaches was counted and a knockdown rate was determined (repeated once). The knockdown rate was calculated by the following equation.
Knockdown rate (%)=(number of knockdowned cockroaches/number of test cockroaches)×100

Structure (SMILES): C#CCC1=C(C)[C@@H](OC(=O)[C@@H]2[C@@H](/C=C(C#N)/C=C/C)C2(C)C)CC1=O [present invention compound (1), (S)-2-methyl-3-propynylcyclopent-2-en-4-on-1-yl=(1R)-trans-3-[(1Z,3E)-2-cyano-1,3-pentadienyl]-2,2-dimethylcyclopropane carboxylate]
- knockdown rate: 100%
